Laboratory results reported in patent US20070059321A1, “Methods of reducing minimal inhibitory concentration of antibiotics and compositions resulting therefrom” (The Hong Kong Polytechnic University, priority 2005, published 2007).
Read-outs that look alike come from different tables or passages of the source.

How the values were obtained:
Format in all cases: cell-based
[1] = test system: MSSA2 (methicillin-sensitive Staphylococcus aureus clinical isolate); test: Broth microdilution MIC (NCCLS 2000), strain MSSA2; conditions: 18 h
Method: (§1) Antimicrobial susceptibility testing was performed by broth assay followed standard laboratory procedures (the National Committee for Clinical Laboratory Standards (NCCLS) protocol 2000). The MIC in this assay was defined as the lowest concentration of the antibiotic under test that inhibited the visible growth of the microorganism under study.
(§2) There were eight strains of Staphylococcus aureus tested. All were from clinical isolates as they represent strains actually present in the community and so of clinical relevance. Three strains were sensitive to methicillin (MSSA), and five strains were resistant to methicillin (MRSA).
(§3) The MIC for each of the eight strains was determined for penicillin G and for vancomycin using dilutions made from the stock preparations purchased (both from Sigma). […]
(§4) The antimicrobial susceptibility test was performed in a 96-well microtitre plate and following standard National Committee for Clinical Laboratory Standards (NCCLS) protocol (NCCLS, 2000). […] Minimal inhibitory concentration (MIC) was determined by the microdilution method in Mueller-Hinton broth (Oxoid, Hampshire, UK), according to the standards of the NCCLS (2000). […]
(§5) Each bacterial strain was plated overnight on Mueller-Hinton agar and then transferred to a broth 3 hours before the assay was performed. […] Microplates were examined 18 hours later and determined for MIC. […]

[2] = test system: MRSA1 (methicillin-resistant Staphylococcus aureus clinical isolate); test: Broth microdilution MIC (NCCLS 2000), strain MRSA1; conditions: 18 h
Method: as §1, §2, §3, §4, §5

[3] = test system: MRSA4 (methicillin-resistant Staphylococcus aureus clinical isolate); test: Broth microdilution MIC (NCCLS 2000), strain MRSA4; conditions: 18 h
Method: as §1, §2, §3, §4, §5

[4] = test system: MRSA2 (methicillin-resistant Staphylococcus aureus clinical isolate); test: Broth microdilution MIC (NCCLS 2000), strain MRSA2; conditions: 18 h
Method: as §1, §2, §3, §4, §5

[5] = test system: eight strains of Staphylococcus aureus (MSSA and MRSA clinical isolates); test: Broth microdilution MIC (NCCLS 2000), summary over all tested strains; conditions: read-out: MIC concentrations of the different strains
Method: as §1, §2, §3, §4, §5

[6] = test system: MSSA1 (methicillin-sensitive Staphylococcus aureus clinical isolate); test: Broth microdilution MIC (NCCLS 2000), strain MSSA1; conditions: 18 h
Method: as §1, §2, §3, §4, §5

[7] = test system: MRSA5 (methicillin-resistant Staphylococcus aureus clinical isolate); test: Broth microdilution MIC (NCCLS 2000), strain MRSA5; conditions: 18 h
Method: as §1, §2, §3, §4, §5

[8] = test system: MSSA3 (methicillin-sensitive Staphylococcus aureus clinical isolate); test: Broth microdilution MIC (NCCLS 2000), strain MSSA3; conditions: 18 h
Method: as §1, §2, §3, §4, §5

[9] = test system: MRSA3 (methicillin-resistant Staphylococcus aureus clinical isolate); test: Broth microdilution MIC (NCCLS 2000), strain MRSA3; conditions: 18 h
Method: as §1, §2, §3, §4, §5

| MIC ([1]; strain MSSA2, extract where present 1% w/v final, 37° C., Mueller-Hinton broth, read-out: MIC) [µg/mL] | MIC ([2]; strain MRSA1, extract where present 1% w/v final, 37° C., Mueller-Hinton broth, read-out: MIC) [µg/mL] | MIC ([3]; strain MRSA4, extract where present 1% w/v final, 37° C., Mueller-Hinton broth, read-out: MIC) [µg/mL] | MIC ([4]; strain MRSA2, extract where present 1% w/v final, 37° C., Mueller-Hinton broth, read-out: MIC) [µg/mL] | MIC ([5]; antibiotic alone, range over the eight MSSA and MRSA strains) [µg/mL] | MIC ([6]; strain MSSA1, extract where present 1% w/v final, 37° C., Mueller-Hinton broth, read-out: MIC) [µg/mL] | MIC ([7]; strain MRSA5, extract where present 1% w/v final, 37° C., Mueller-Hinton broth, read-out: MIC) [µg/mL] | MIC ([8]; strain MSSA3, extract where present 1% w/v final, 37° C., Mueller-Hinton broth, read-out: MIC) [µg/mL] | MIC ([9]; strain MRSA3, extract where present 1% w/v final, 37° C., Mueller-Hinton broth, read-out: MIC) [µg/mL] | Structure (SMILES) | MIC [1] [µg/mL] | MIC [2] [µg/mL] | MIC [3] [µg/mL] | MIC [4] [µg/mL] | MIC [5] [µg/mL] | MIC [6] [µg/mL] | MIC [7] [µg/mL] | MIC [8] [µg/mL] | MIC [9] [µg/mL] |
| --- | --- | --- | --- | --- | --- | --- | --- | --- | --- | --- | --- | --- | --- | --- | --- | --- | --- | --- |
| 32 | 512 | 256 | 256 | 8 to 1020 | 64 | 512 | 8 | 1020 | CC1(C)S[C@@H]2[C@H](NC(=O)Cc3ccccc3)C(=O)N2[C@H]1C(=O)O [Pen, penicillin G] |  |  |  |  |  |  |  |  |  |
|  |  |  |  |  |  |  |  |  | CN[C@H](CC(C)C)C(=O)N[C@H]1C(=O)N[C@@H](CC(N)=O)C(=O)N[C@H]2C(=O)N[C@H]3C(=O)N[C@H](C(=O)N[C@H](C(=O)O)c4cc(O)cc(O)c4-c4cc3ccc4O)[C@H](O)c3ccc(c(Cl)c3)Oc3cc2cc(c3O[C@@H]2O[C@H](CO)[C@@H](O)[C@H](O)[C@H]2O[C@H]2C[C@](C)(N)[C@H](O)[C@H](C)O2)Oc2ccc(cc2Cl)[C@H]1O [Van, vancomycin] | 0.5 | 0.5 | 0.5 | 1 | 0.5 to 1 | 0.5 | 0.5 | 0.5 | 1 |
